Measured values from patent publication US10189824B2, “Pyrimidine-diamine dual HSP90/TRAP1 inhibitors” (CalAsia Pharmaceuticals, Inc., priority 2014, dated 2019).

Experiments:
[1] = molecular target: human Hsp90; experiment: Fluorescence polarization (FP) displacement assay, GA-FITC, Hsp90; type: binding; details: FP displacement of GA-FITC, 50 nM Hsp90; for IC50: read-out: Biochemical efficacy HSP90 IC50; for Ki: read-out: Biochemical efficacy HSP90 Ki
Protocol: (§1) Prior to transforming into BL21 (DE3) all the cloned vectors were sequence confirmed. Expressed proteins were purified using NTA resin (Life Technologies) followed by size exclusion chromatography using FPLC. The molecular mass of the purified proteins was confirmed by MALDI-TOF and assessed for purity by SDS-PAGE.
(§2) The assay conditions were 20 mM HEPES, pH-7.5, 50 mM KCl, 5 mM MgCl2, 20 mM sodium molybdate, 2 mM DTT, 0.01% NP40, 100 ug/ml BSA, 50 nM Hsp90 or 200 nM TRAP1, 1% DMSO, and 8 nM (for Hsp90) or 20 nM (for TRAP1) GA-FITC in the presence of increasing concentrations of test compound.

[2] = molecular target: T1, TRAP1 (Homo sapiens, UniProt Q12931); experiment: Fluorescence polarization (FP) displacement assay, GA-FITC, TRAP1; type: binding; details: FP displacement of GA-FITC, 200 nM TRAP1; for Ki: NA: Not active, read-out: Biochemical efficacy TRAP1 Ki; for IC50: read-out: Biochemical efficacy TRAP1 IC50
T1 construct: Recombinant full-length human Hsp90 and 459 TRAP1 were cloned; 6His (TEV-cleavable) (N); made in house; host or cells: E. coli BL21 (DE3)
T1 sequence (Q12931 60-704): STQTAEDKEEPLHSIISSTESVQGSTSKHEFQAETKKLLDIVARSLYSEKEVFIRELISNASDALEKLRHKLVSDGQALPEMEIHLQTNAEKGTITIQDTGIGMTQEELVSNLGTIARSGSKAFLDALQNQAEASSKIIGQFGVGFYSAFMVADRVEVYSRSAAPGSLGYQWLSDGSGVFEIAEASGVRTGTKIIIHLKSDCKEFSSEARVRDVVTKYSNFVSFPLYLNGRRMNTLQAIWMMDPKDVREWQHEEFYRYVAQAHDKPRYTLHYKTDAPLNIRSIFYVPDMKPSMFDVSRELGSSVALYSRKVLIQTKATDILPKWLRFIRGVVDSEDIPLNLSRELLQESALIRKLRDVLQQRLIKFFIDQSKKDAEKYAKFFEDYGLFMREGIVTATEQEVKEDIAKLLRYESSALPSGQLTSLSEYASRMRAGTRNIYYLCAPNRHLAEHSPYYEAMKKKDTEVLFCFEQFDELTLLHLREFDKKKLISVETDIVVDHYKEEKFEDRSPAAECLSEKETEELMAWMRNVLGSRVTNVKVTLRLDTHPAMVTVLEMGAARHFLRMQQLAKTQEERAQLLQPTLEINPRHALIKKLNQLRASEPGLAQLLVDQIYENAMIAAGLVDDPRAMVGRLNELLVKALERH
Protocol: as §1, §2

[3] = system: HEI193 cells; experiment: TMRE assay, HEI193 cell mitochondrial integrity; type: cell-based, human; details: observed as early as 2 hours after treatment
Protocol: Mitochondrial integrity was evaluated using Tetramethylrhodamine ethyl ester (TMRE) assay. A TMRE assay kit (Abcam) was used to evaluate Hsp90/TRAP1 inhibitor-induced changes in mitochondrial membrane potential. […] TMRE (200 nM) was then added to wells for 30 min and monitored for changes in fluorescence activity using a fluorescence plate reader (ex544/em 590) after washing the cells. Specific TMRE fluorescence was calculated by comparison to matched wells pretreated with the depolarizing proton ionophore carbonyl cyanide 4-(trifluoromethoxy)phenylhydrazone (FCCP) at 20 uM 10 min prior to addition of TMRE. For mitochondria assays, mitochondria was isolated using a kit from Thermoscientific and loaded with 0.1 mM TMRE. TMRE-loaded mitochondria (2 μg per well) were incubated with test compounds and monitored kinetically at 30° C. for changes in fluorescence using a flurorescence plate reader (ex 544/em 590) (FIGS. 6A, 9A and 12).

[4] = system: GBM10; experiment: Cellular efficacy in Mayo Clinic GBM PDX cell line GBM10; type: cell-based
Protocol: (§3) Short-term explant cultures from PDX models were seeded into 96-well Perfecta3D hanging drop plates to form a single spheroid in each well after 2 days. The spheroids were transferred to a round bottom 96 well plate by centrifugation and then incubated with graded concentrations of test compound (8 spheroids per compound concentration). Spheroid volumes were monitored every 6 hours over the course of 5 days using the IncuCyte system (Essen BioScience, MI, US) to provide a growth curve akin to a tumor regrowth assay.

[5] = system: GBM39; experiment: Cellular efficacy in Mayo Clinic GBM PDX cell line GBM39; type: cell-based
Protocol: as §3

[6] = system: GBM43; experiment: Cellular efficacy in Mayo Clinic GBM PDX cell line GBM43; type: cell-based
Protocol: as §3

[7] = system: Hsp90 client proteins (Akt1, ERK1) in MDA-MB-231 cell line; experiment: Cellular biomarker assays (Akt1, ERK1 ELISA) in MDA-MB-231; type: cell-based; details: 48 hours
Protocol: (§4) Cellular biomarker assays: Cells were cultured in culture medium (RPMI-glutamax, 10% FCS, 100 units/ml penicillin, and 100 μg/ml streptomycin). Cells were passaged after lifting using 0.25% trypsin/EDTA, and 3×10^5 cells were seeded in each well of six well plates (total volume 2.5 mL/well). After the cells were cultured for 24 hours, increasing concentrations of Hsp90 inhibitor were added to wells in triplicate from DMSO-containing stock solutions and mixed by gently by stirring. Final DMSO concentration in all wells was 0.25%. The treated cells were then cultured for 48 hours prior to lysate preparation. The culture media was removed from wells, and the wells were washed twice with DPBS containing 1 mM CaCl2 and 0.5 mM MgCl2. […] The protein concentration in the cell lysates was determined using the BCA protein assay kit used according to the manufacturer's recommendations. […] Protein concentrations were determined using a micro-titer plate reader (Model # Synergy HT; BioTek Inc., Winooski, Vt.).
(§5) Akt1 and ERK1 levels in the cell lysates were measured using kits from R&D Systems used according to the manufacturer's recommendations. […] Akt1 and ERK1 levels were determined using a micro-titer plate reader (Model # Synergy HT; BioTek Inc., Winooski, Vt.) (FIGS. 5 and 8).

[8] = system: Hsp90 client proteins (Akt1, ERK1) in HEI193; experiment: Cellular biomarker assays (Akt1, ERK1 ELISA) in HEI193; type: cell-based, human; details: 48 hour treatment
Protocol: as §4, §5

[9] = system: Hsp90 client proteins (EGFR and Akt1) in Mayo Clinic GBM PDX cell lines; experiment: Cellular biomarker assays (EGFR, Akt1 ELISA) in Mayo Clinic GBM PDX cell lines; type: cell-based; details: 48 hours; three cell lines
[10] = system: Mayo Clinic patient derived GBM tumor cells; experiment: Mayo Clinic patient derived GBM tumor cell proliferation; type: cell-based; details: 132 hours
Protocol: as §3

| Compound | IC50 [1] [nM] | Ki [1] [nM] | Ki [2] [nM] | IC50 [2] [nM] | EC50 [4] [nM] | EC50 [5] [nM] | EC50 [6] [nM] | Effect on TMRE fluorescence in HEI193 cells [3] | Effect on Akt1 and ERK1 levels, MDA-MB-231 [7] | Effect on Akt1 and ERK1 levels, HEI193 [8] | Effect on EGFR and Akt1 levels, GBM PDX cell lines [9] | Effect on patient derived GBM tumor cell proliferation [10] |
| --- | --- | --- | --- | --- | --- | --- | --- | --- | --- | --- | --- | --- |
| CC(C)c1cc(-c2n[nH]c(=O)n2-c2ccc3c(ccn3C)c2)c(O)cc1O [Ganetespib, reference compound] | – | – | – | – | – | – | – | significantly weaker response | – | – | – | – |
| COc1ccnc(CN(CC2(c3ccc(F)cc3)CCOCC2)c2cc(Cl)nc(N)n2)c1C [Compound C, 6-chloro-4-N-{[4-(4-fluorophenyl)oxan-4-yl]methyl}-4-N-[(4-methoxy-3-methylpyridin-2-yl)methyl]pyrimidine-2,4-diamine] | 87 | 22 | – | > 4000 | – | – | – | – | – | – | – | – |

More lines, in order of falling IC50 [1], values ahead:

| IC50 [1] [nM] | Ki [1] [nM] | Ki [2] [nM] | IC50 [2] [nM] | EC50 [4] [nM] | EC50 [5] [nM] | EC50 [6] [nM] | Compound | Effect on TMRE fluorescence in HEI193 cells [3] | Effect on Akt1 and ERK1 levels, MDA-MB-231 [7] | Effect on Akt1 and ERK1 levels, HEI193 [8] | Effect on EGFR and Akt1 levels, GBM PDX cell lines [9] | Effect on patient derived GBM tumor cell proliferation [10] |
| --- | --- | --- | --- | --- | --- | --- | --- | --- | --- | --- | --- | --- |
| 96 | 24 | 138 | 1100 | – | – | – | COc1c(C)cnc(CN(CC2(c3ccccn3)CCOCC2)c2cc(Cl)nc(N)n2)c1C [Compound E, 6-chloro-4-N-[(4-methoxy-3,5-dimethylpyridin-2-yl)methyl]-4-N-{[4-(pyridin-2-yl)oxan-4-yl]methyl}pyrimidine-2,4-diamine] | – | – | – | – | – |
| 54 | 14 | 68 | 543 | – | – | – | COc1c(C)cnc(CN(CC2(c3cccc(C)n3)CCOCC2)c2cc(Cl)nc(N)n2)c1C [Compound D, 6-chloro-4-N-[(4-methoxy-3,5-dimethylpyridin-2-yl)methyl]-4-N-{[4-(6-methylpyridin-2-yl)oxan-4-yl]methyl}pyrimidine-2,4-diamine] | – | – | – | – | – |
| 33 | 8 | 11 | 85 | 1200 | 620 | 870 | Cc1cnc(CN(CC2(c3ccc(F)cc3)CCOCC2)c2cc(Cl)nc(N)n2)c(C)c1Cl [Compound B, 6-chloro-4-N-[(4-chloro-3,5-dimethylpyridin-2-yl)methyl]-4-N-{[4-(4-fluorophenyl)oxan-4-yl]methyl}pyrimidine-2,4-diamine] | – | suppression of Hsp90 client proteins | reduction of Hsp90 client proteins | suppression of Hsp90 client proteins | inhibit |
